This is an account of results in ChEMBL document CHEMBL1201862, “PubChem BioAssay data set” (2004).

The structures appear in SMILES notation.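 48-hour exposure; five concentrations; linearly interpolated endpoints. Abbreviation: GI50, concentration required for 50% inhibition of growth.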 Calls of active or inactive are those of the source. No stated cut-off is given here; in the data, active = GI50 up to about 1.1 µM and inactive = higher. Residues, ends and D or L forms follow the SMILES beside them. Bounds are passed on as bounds.

Among the test systems are PC-3; SF-268; IGROV-1; HCC 2998; KM12; CAKI-1; SW-620; OVCAR-8; HCT-116; MDA-MB-231; NCI-H23; HCT-15; ACHN; RXF 393; SK-MEL-5; NCI/ADR-RES; HT-29; SF-295; A498; K562.
Experiment in all cases: inhibition of tumour cell growth, NCI panel, 48 h

Turning to `CCOc1ccccc1/C=C1\NC(=O)N(/C=C2\C(=O)Oc3ccccc3C2=O)C1=O`, the GI50 in the assay with PC-3 was 42.5 µM (inactive); in the assay with SF-268, > 100 µM (inactive); in the assay on IGROV-1 it was 35.7 µM (inactive); with HCC 2998 it was 74 µM (inactive); with KM12, 43 µM (inactive); with CAKI-1 it was 99.1 µM (inactive). Also, the GI50 was 51.5 µM (inactive) with SW-620; 80.9 µM (inactive) in the assay on OVCAR-8; 39.1 µM (inactive) in the assay on HCT-116; 44.6 µM (inactive) in the assay on MDA-MB-231; 31.3 µM (inactive) with NCI-H23; 53.8 µM in the assay with HCT-15. The GI50 was 50.6 µM (inactive) in the assay on ACHN; 9.82 µM (inactive) in the assay with RXF 393; 23.9 µM (inactive) with SK-MEL-5; 46 µM (inactive) in the assay on NCI/ADR-RES; 65.5 µM (inactive) in the assay on HT-29; 44.5 µM (inactive) in the assay on SF-295.
As for `CN(C)/C=N/c1c2c(nc3ccccc13)CCCC2`, the GI50 was 49.9 µM (inactive) in the assay on A498; 38.5 µM (inactive) with PC-3; > 100 µM (inactive) in the assay with SF-268; > 100 µM (inactive) in the assay on IGROV-1; > 100 µM (inactive) in the assay on CAKI-1; 50.1 µM (inactive) in the assay on OVCAR-8. Moreover, the GI50 is 39.1 µM (inactive) with HCT-116; > 100 µM (inactive) with MDA-MB-231; 50.7 µM (inactive) in the assay on NCI-H23; greater than 100 µM in the assay with HCT-15; > 100 µM (inactive) in the assay on ACHN; > 100 µM (inactive) in the assay with RXF 393. For the same compound, the GI50 with SK-MEL-5 was > 100 µM (inactive); in the assay on NCI/ADR-RES, 37.3 µM (inactive); with HT-29 it was 36.7 µM (inactive); with SF-295 it was 41.5 µM (inactive); with K562, 32 µM (inactive).
Regarding `COc1cc(/C=C2/C(=O)N/C(=N\C(C)=O)N2C)ccc1OC(C)=O`, the GI50 in the assay with PC-3, in the assay with IGROV-1, in the assay with HCC 2998, in the assay with KM12, in the assay on CAKI-1 and in the assay on SW-620 was > 100 µM (inactive) in each case. In addition, the GI50 was > 100 µM (inactive) in the assay with OVCAR-8; > 100 µM (inactive) in the assay with HCT-116; > 100 µM (inactive) in the assay with MDA-MB-231; > 100 µM (inactive) in the assay on NCI-H23; greater than 100 µM in the assay with HCT-15; > 100 µM (inactive) in the assay on ACHN. In addition, the GI50 with SK-MEL-5, in the assay on NCI/ADR-RES, in the assay on HT-29 and in the assay on SF-295 was > 100 µM (inactive) in each case.
With `CC1(C)OC2[C@@H](CO[C@@]3([C@H]4OC(C)(C)O[C@@H]4CO)OC(C)(C)O[C@@H]23)O1` (stereo partly specified), the GI50 with PC-3, in the assay on SF-268, in the assay with IGROV-1, in the assay on HCC 2998, in the assay with KM12 and in the assay with SW-620 was > 100 µM (inactive) each time. Further, the GI50 in the assay with OVCAR-8 is > 100 µM (inactive); in the assay on HCT-116 it was > 100 µM (inactive); in the assay with MDA-MB-231 it was > 100 µM (inactive); with NCI-H23 it was > 100 µM (inactive); with HCT-15, greater than 100 µM; in the assay with ACHN, > 100 µM (inactive). The GI50 with RXF 393, with SK-MEL-5, with NCI/ADR-RES, with HT-29, in the assay with SF-295 and in the assay with K562 was > 100 µM (inactive) in each case.
Take `Cc1c(N2C(=O)/C(=C/C=C/c3ccccc3)N=C2c2ccccc2)c(=O)n(-c2ccccc2)n1C`: the GI50 in the assay on PC-3 was 25.6 µM (inactive); in the assay with SF-268 it was 22.6 µM (inactive); with IGROV-1 it was 16.3 µM (inactive); in the assay on KM12 it was 25.5 µM (inactive); with CAKI-1, 37.8 µM (inactive); with SW-620, 31.6 µM (inactive). For the same compound, the GI50 is 26.1 µM (inactive) in the assay with OVCAR-8; 34.8 µM (inactive) in the assay with HCT-116; 22.1 µM (inactive) in the assay on MDA-MB-231; 22 µM (inactive) in the assay on NCI-H23; 5.45 µM with HCT-15; 17.8 µM (inactive) in the assay with ACHN. Besides, the GI50 in the assay with RXF 393 is 17.9 µM (inactive); with SK-MEL-5 it was 16.3 µM (inactive); with NCI/ADR-RES, 21.7 µM (inactive); in the assay on HT-29, 20.3 µM (inactive); in the assay with SF-295, 19.1 µM (inactive); with K562 it was 19 µM (inactive).
As for `CCCCn1c(C)c2c(c1C)C(=O)N(CCN1CCN(c3ccccc3Cl)CC1)C2=O`, the GI50 in the assay with A498 is 39 µM (inactive); with PC-3, 28.4 µM (inactive); with SF-268 it was 17.6 µM (inactive); in the assay on IGROV-1, 30.9 µM (inactive); in the assay with HCC 2998, 30.6 µM (inactive); with KM12, 31.5 µM (inactive). Further, the GI50 in the assay with CAKI-1 was 69.3 µM (inactive); in the assay on SW-620, 37.5 µM (inactive); in the assay on OVCAR-8, 44.9 µM (inactive); with HCT-116 it was 18.6 µM (inactive); with MDA-MB-231 it was 51.2 µM (inactive); in the assay with NCI-H23, 27.2 µM (inactive). The GI50 with HCT-15 was 35.6 µM; with ACHN it was 38.1 µM (inactive); with SK-MEL-5 it was 19.9 µM (inactive); with NCI/ADR-RES, 46.7 µM (inactive); with HT-29, 16.4 µM (inactive); in the assay on SF-295, 23.1 µM (inactive). Further, the GI50 in the assay with K562 is 31.6 µM (inactive).
With `CC1CN=C(Nc2ccc(F)cc2F)S1` (stereo unspecified), the GI50 with A498, in the assay on PC-3, in the assay on SF-268, in the assay on IGROV-1, in the assay on HCC 2998 and in the assay with KM12 was > 100 µM (inactive) in each case. Further, the GI50 in the assay on CAKI-1, in the assay on SW-620, with OVCAR-8, in the assay on HCT-116, with MDA-MB-231 and in the assay on NCI-H23 was > 100 µM (inactive) throughout. Moreover, the GI50 was greater than 100 µM in the assay on HCT-15; > 100 µM (inactive) in the assay on ACHN; > 100 µM (inactive) in the assay on SK-MEL-5; > 100 µM (inactive) in the assay on NCI/ADR-RES; > 100 µM (inactive) in the assay on SF-295; > 100 µM (inactive) in the assay with K562.
As to `COc1nc(=O)n(C2CC(N=[N+]=[N-])C(CO)O2)cc1C` (stereo unspecified), the GI50 with PC-3, with SF-268, with IGROV-1, in the assay on KM12, with SW-620 and in the assay on OVCAR-8 was > 100 µM (inactive) in each case. Also, the GI50 in the assay with HCT-116 was > 100 µM (inactive); in the assay with MDA-MB-231, > 100 µM (inactive); in the assay on NCI-H23 it was > 100 µM (inactive); with HCT-15 it was greater than 100 µM; in the assay on ACHN it was > 100 µM (inactive); with SK-MEL-5 it was > 100 µM (inactive). The GI50 in the assay on NCI/ADR-RES, in the assay with HT-29, in the assay on SF-295 and in the assay with K562 was > 100 µM (inactive) throughout.
As for `CCN(CC)CCCC(C)Nc1ccnc(/C=C/c2ccc(Cl)cc2)c1` (stereo unspecified), the GI50 in the assay with PC-3 was 1.56 µM (inactive); with SF-268, 3.06 µM (inactive); with IGROV-1, 2.17 µM (inactive); with HCC 2998 it was 1.95 µM (inactive); with KM12, 2.02 µM (inactive); with CAKI-1, 2.29 µM (inactive). Besides, the GI50 with SW-620 is 1.54 µM (inactive); in the assay on OVCAR-8 it was 3.43 µM (inactive); in the assay on HCT-116 it was 1.72 µM (inactive); in the assay with MDA-MB-231, 0.497 µM (active); with NCI-H23, 10.1 µM (inactive); in the assay on HCT-15, 1.82 µM. Also, the GI50 in the assay with ACHN was 3.32 µM (inactive); in the assay on SK-MEL-5 it was 3.23 µM (inactive); in the assay on NCI/ADR-RES, 3.12 µM (inactive); in the assay with HT-29, 3.49 µM (inactive); with SF-295, 3.02 µM (inactive); with K562, 0.135 µM (active).
For `O=C(CBr)c1ccc2cc(Br)c3ccccc3c2c1`, the GI50 was 21 µM (inactive) in the assay with PC-3; 20.3 µM (inactive) in the assay with SF-268; 29.6 µM (inactive) in the assay on IGROV-1; 54.2 µM (inactive) in the assay on HCC 2998; 17.8 µM (inactive) in the assay with KM12; 18.2 µM (inactive) with CAKI-1. The GI50 was 25.2 µM (inactive) with SW-620; 24.2 µM (inactive) in the assay on OVCAR-8; 40.3 µM (inactive) in the assay with HCT-116; 18.2 µM (inactive) in the assay on MDA-MB-231; 14.7 µM (inactive) in the assay with NCI-H23; 36.1 µM with HCT-15. Also, the GI50 in the assay on ACHN was 52.1 µM (inactive); in the assay with RXF 393, 18.3 µM (inactive); with SK-MEL-5, 14.3 µM (inactive); with NCI/ADR-RES it was 36.7 µM (inactive); in the assay with HT-29, 32.3 µM (inactive); with SF-295, 24.4 µM (inactive). The GI50 with K562 was 26.7 µM (inactive).
As to `CCC(C)C(NC(=O)C(CCCCN)NC(=O)C(NC(=O)C(CCC(N)=O)NC(=O)C(N)CCCNC(=N)N)C(C)CC)C(=O)NC(Cc1c[nH]c2ccccc12)C(=O)NC(Cc1ccccc1)C(=O)NC(CCC(N)=O)C(=O)NC(CC(N)=O)C(=O)NC(CCCNC(=N)N)C(=O)NC(CCCNC(=N)N)C(=O)NC(CCSC)C(=O)NC(CCCCN)C(=O)NC(Cc1c[nH]c2ccccc12)C(=O)NC(CCCCN)C(=O)NC(CCCCN)C(=O)N1CCCC1C(=O)NC(C)C(=O)NC(CCCCN)C(=O)NC(CCCNC(=N)N)C(=O)NC(CCCCN)C(=O)NC(CC(C)C)C(=O)NC(Cc1ccccc1)C(=O)NCC(=O)O` (stereo unspecified) (H-RQIKIWFQNRRMKWKKPAKRKLFG-OH; configuration not given here), the GI50 in the assay on PC-3 was > 25 µM (inactive); in the assay on SF-268, 15.9 µM (inactive); in the assay with IGROV-1 it was > 25 µM (inactive); in the assay with HCC 2998 it was > 25 µM (inactive); with KM12 it was 9.31 µM (inactive); in the assay with CAKI-1 it was > 25 µM (inactive). Besides, the GI50 was > 25 µM (inactive) in the assay on SW-620; > 25 µM (inactive) in the assay on OVCAR-8; 16.3 µM (inactive) in the assay with HCT-116; 10.5 µM (inactive) in the assay on MDA-MB-231; > 25 µM (inactive) in the assay with NCI-H23; greater than 25 µM in the assay on HCT-15. In addition, the GI50 in the assay with ACHN was > 25 µM (inactive); with RXF 393, > 25 µM (inactive); in the assay with SK-MEL-5, 16.5 µM (inactive); with NCI/ADR-RES, > 25 µM (inactive); in the assay on HT-29, > 25 µM (inactive); in the assay with SF-295 it was > 25 µM (inactive). The GI50 in the assay on K562 is > 25 µM (inactive).
